Test results reported in ChEMBL document CHEMBL1629512, “Ipomotaosides A-D, resin glycosides from the aerial parts of Ipomoea batatas and their inhibitory activity against COX-1 and COX-2” (J Nat Prod, 2010).
pIC50: −log10 of the molar value.

Assays:
[1] = molecular target: T1, Prostaglandin G/H synthase 2 (Ovis aries, UniProt P79208); test: Inhibition of sheep COX2-mediated PGE2 production after 2 mins by liquid scintillation counting; conditions: for pIC50: read-out: IC50
T1 sequence (P79208 whole entry): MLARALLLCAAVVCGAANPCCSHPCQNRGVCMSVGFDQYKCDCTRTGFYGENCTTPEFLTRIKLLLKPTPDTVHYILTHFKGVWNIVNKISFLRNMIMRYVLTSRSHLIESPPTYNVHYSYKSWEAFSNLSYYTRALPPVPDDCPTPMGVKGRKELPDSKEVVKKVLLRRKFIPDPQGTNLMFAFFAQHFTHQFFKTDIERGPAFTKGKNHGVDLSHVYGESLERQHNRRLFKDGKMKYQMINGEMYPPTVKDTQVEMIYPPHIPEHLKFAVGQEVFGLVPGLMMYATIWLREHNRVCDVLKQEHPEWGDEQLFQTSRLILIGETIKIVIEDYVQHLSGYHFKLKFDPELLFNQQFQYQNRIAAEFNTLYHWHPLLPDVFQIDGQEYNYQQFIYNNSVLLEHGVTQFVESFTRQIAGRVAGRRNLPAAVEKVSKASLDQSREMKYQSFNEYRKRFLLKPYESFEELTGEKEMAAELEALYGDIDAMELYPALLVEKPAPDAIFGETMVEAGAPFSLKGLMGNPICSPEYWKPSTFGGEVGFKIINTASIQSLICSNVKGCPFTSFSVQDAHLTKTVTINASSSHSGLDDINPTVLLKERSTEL

[2] = molecular target: T2, Prostaglandin G/H synthase 1 (Ovis aries, UniProt P05979); test: Inhibition of sheep COX1-mediated PGE2 production after 2 mins by liquid scintillation counting; conditions: for pIC50: read-out: IC50
T2 sequence (P05979 whole entry): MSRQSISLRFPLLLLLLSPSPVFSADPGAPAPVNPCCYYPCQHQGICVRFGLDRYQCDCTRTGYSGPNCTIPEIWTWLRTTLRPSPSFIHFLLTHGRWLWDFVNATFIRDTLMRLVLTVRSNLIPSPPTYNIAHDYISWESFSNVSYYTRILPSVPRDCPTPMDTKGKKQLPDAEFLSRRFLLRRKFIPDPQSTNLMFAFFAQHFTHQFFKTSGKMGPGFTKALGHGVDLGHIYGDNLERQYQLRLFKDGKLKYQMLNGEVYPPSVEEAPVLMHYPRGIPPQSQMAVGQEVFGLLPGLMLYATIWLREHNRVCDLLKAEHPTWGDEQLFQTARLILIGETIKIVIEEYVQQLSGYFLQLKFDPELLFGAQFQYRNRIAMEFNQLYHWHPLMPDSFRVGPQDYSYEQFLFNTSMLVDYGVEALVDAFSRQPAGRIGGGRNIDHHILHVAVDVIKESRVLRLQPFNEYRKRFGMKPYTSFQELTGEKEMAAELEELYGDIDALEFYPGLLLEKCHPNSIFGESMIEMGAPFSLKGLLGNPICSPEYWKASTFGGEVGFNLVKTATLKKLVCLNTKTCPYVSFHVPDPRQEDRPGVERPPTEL

Structure (SMILES) | pIC50 [1] | pIC50 [2] | IC50 [1] | IC50 [2]
CCCCCCCCCCCC(=O)O[C@@H]1[C@@H](O)[C@@H](OC(=O)/C=C/c2ccccc2)[C@H](O[C@@H]2[C@@H](OC(=O)CCCCCCCCC)[C@@H](O)[C@H](O[C@@H]3[C@@H](O)[C@H]4OC(=O)CCCCCCCCC[C@H](CCCCC)O[C@@H]5O[C@H](C)[C@H](O)[C@H](O)[C@H]5O[C@@H]4O[C@H]3C)O[C@H]2C)O[C@H]1C [IPOMOTAOSIDE A] | 4.84 | 5.03 |  | 
CCCCCCCCCCCC(=O)O[C@@H]1[C@@H](O)[C@@H](OC(=O)/C=C/c2ccccc2)[C@H](O[C@@H]2[C@@H](OC(=O)CCCCCCCCC)[C@@H](O)[C@H](O[C@@H]3[C@H]4OC(=O)CCCCCCCCC[C@H](CCCCC)O[C@@H]5O[C@H](C)[C@H](O)[C@H](O)[C@H]5O[C@H](O[C@H]3C)[C@@H]4O)O[C@H]2C)O[C@H]1C [IPOMOTAOSIDE D] |  |  | Not Active | Not Active
CCCCCCCCCCCC(=O)O[C@@H]1[C@@H](O)[C@@H](OC(=O)/C=C/c2ccccc2)[C@H](O[C@@H]2[C@@H](O)[C@@H](OC(=O)CCCCCCCCC)[C@H](O[C@@H]3[C@H]4OC(=O)CCCCCCCCC[C@H](CCCCC)O[C@@H]5O[C@H](C)[C@H](O)[C@H](O)[C@H]5O[C@H](O[C@H]3C)[C@@H]4O)O[C@H]2C)O[C@H]1C [IPOMOTAOSIDE C] |  |  | Not Active | Not Active
CCCCCCCCCCCC(=O)O[C@@H]1[C@@H](O)[C@@H](OC(=O)/C=C/c2ccccc2)[C@H](O[C@@H]2[C@@H](O)[C@@H](OC(=O)CCCCCCCCCCC)[C@H](O[C@@H]3[C@@H](O)[C@H]4OC(=O)CCCCCCCCC[C@H](CCCCC)O[C@@H]5O[C@H](C)[C@H](O)[C@H](O)[C@H]5O[C@@H]4O[C@H]3C)O[C@H]2C)O[C@H]1C [IPOMOTAOSIDE B] | 3.83 | 3.88 |  | 
